Measured values from article PMC8980233, “Differentiating the Neuropharmacological Properties of Nicotinic Acetylcholine Receptor-Activating Alkaloids” (Frontiers in Pharmacology, 2022).
Counter-ions that a name gives are not always drawn. Values belong to the compound of their own block, whether it stands above or below them.

What was measured:
C57Bl/6 mice = test: Tolerability test (body weight, body temperature, passive signs, manipulation responses); details: for BT (°C) naïve / Manipulations naïve / Passive naïve: baseline; for BW Day 1 / BW Day 2: mean ± SD; for tolerability: highest dose 10 mg/kg i.p.
Description: In brief, mice were single-housed prior to the test and evaluated for baseline body weight, body temperature, and other parameters. […] On day 1, the mice were i. p. injected with saline (vehicle) or a test compound at 10 ml/kg body weight. Then, body temperature was measured at 15 min, 4 h, and 24 h and body weight on days 1 and 2. Neurological and motor parameters were evaluated at 15 min, 2 h, and 4 h after administration. The list of parameters is provided in Supplementary Figure S1 in Supplementary Material S1.
In addition, within 5 min after the 15-min observation period, mice were placed in open-field chambers for 30 min to determine their general motor activity (distance traveled), ambulatory time, and number of rears. The open-field chambers were made of Plexiglas (27.3 × 27.3 × 20.3 cm; Med Associates Inc, St Albans, VT, United States) surrounded by infrared photobeam sources (16 × 16 × 16 beams). Horizontal activity (distance and time traveled) and vertical activity (number and frequency of rears) were measured by consecutive beam breaks. At the end of each open-field test session, the chambers were thoroughly cleaned with NOLVASAN® solution (Zoetis Services LLC, Parsippany, NJ, United States). Four mice were used per treatment condition. Mice were terminated after completion of the last tolerability observation.
All compounds were diluted in saline, and the pH was adjusted to approximately 7.0 with HCl or NaOH on the day of the experiment. […] The doses were calculated based on the free base molecular weight of the compounds.
For the tolerability tests, passive signs and manipulation responses were analyzed for effects of the treatment by the Kruskal–Wallis test. Body temperature and body weight data were analyzed by two-way repeated measures analysis of variance (ANOVA). The total distance and time traveled and number and frequency of rears in the open-field activity test were analyzed by one-way ANOVA, followed by the Tukey post-hoc test. For the analyses of the zebrafish NTT data, one-way ANOVA was used, followed by Dunnett’s multiple comparison test, if it passed the Shapiro-Wilk normality test. […] An effect was considered significant if p < 0.05. The half maximal effective concentration (EC50) and half-maximal inhibitory concentration (IC50) for the receptor pharmacology and neurotransmitter release assay were determined by using nonlinear regression analysis. Statistical analyses were conducted using GraphPad Prism.

[1] = system: dopamine release from striatal synaptosomes; test: In vitro [3H]dopamine release from crude striatal synaptosomes; assay type: biochemical, rat; details: for EC50: striatal synaptosomes
Description: In brief, male Sprague Dawley rats (200–225 g) were terminated by cervical dislocation followed by decapitation. The striatums or hippocampi were dissected and homogenized in ice-cold 0.32 M sucrose using a Dounce homogenizer. The homogenates were centrifuged at 100 x g for 5 min to pellet cell debris. The supernatants were collected and centrifuged at 17,000 x g for 10 min at 4°C to pellet crude synaptosomes.
The [^3H]norepinephrine- or [^3H]dopamine-treated crude synaptosomes were loaded onto closed filter chambers containing Whatman® Grade GF/C Glass Microfiber filters (Sigma-Aldrich, Merck KGaA, Darmstadt, Germany) and placed in a superfusion system. […] To ensure an even flow over the synaptosomal bed, trapped air bubbles were removed from the filters prior to collection of the fractions. After a superfusion period of 40 min, three basal fractions (1.5 ml/fraction) were collected first, followed by three fractions (1.5 ml/fraction) containing the test compound. Two additional fractions were collected in the presence of 30 mM KCl to depolarize the synaptosomes. […] Once all fractions were collected, the filters holding the crude synaptosome samples were removed and dried overnight at room temperature. On the following day, the scintillation cocktail was added and the filters were counted to determine residual radioactivity.
(§1) Compound-evoked release of neurotransmitters was calculated by subtracting the counts per minute (CPM) in the two basal fractions collected immediately prior to compound addition from those in the two fractions collected immediately following compound addition. The compound-evoked release was then expressed as a percentage of the basal release from that chamber. Potassium-evoked release was calculated by subtracting the CPM in the fraction immediately prior to KCl addition from the CPM in the […] immediately following potassium addition. Stimulated release was calculated as the percentage of basal release for that chamber. The increase in stimulated release above the baseline (no compound) release for that experimental run was determined, and the latter values were plotted on the graphs. Dose–response curves were determined using non-linear curve fitting in Prism (GraphPad Software, Inc, San Diego, CA, United States). All experiments were repeated at least three times.

[2] = system: norepinephrine release from hippocampal synaptosomes; test: In vitro [3H]norepinephrine release from crude hippocampal synaptosomes; assay type: biochemical, rat
Description: In vitro neurotransmitter assays using crude synaptosome preparations were conducted by Gifford Biosciences Limited (Birmingham, UK) based on the previously described protocols ([Clarke and Reuben, 1996]; [Gifford et al., 2000]). In brief, male Sprague Dawley rats (200–225 g) were terminated by cervical dislocation followed by decapitation. The striatums or hippocampi were dissected and homogenized in ice-cold 0.32 M sucrose using a Dounce homogenizer. The homogenates were centrifuged at 100 x g for 5 min to pellet cell debris. The supernatants were collected and centrifuged at 17,000 x g for 10 min at 4°C to pellet crude synaptosomes. The pellets were resuspended in 5 ml Krebs buffer, pH 7.4 (in mM (pH 7.4): 120 NaCl, 3.3 KCl, 1.2 MgSO4, 1.3 CaCl2, 1.2 K2HPO4, 25 HEPES, 11 glucose, 0.01 ascorbic acid, 0.025 pargyline, and 0.1% BSA containing 2 μCi/ml [^3H]norepinephrine for hippocampal synaptosomes or 1 μCi/ml [^3H]dopamine for striatal synaptosomes and incubated for 15 min at 35°C with gentle shaking.
The [^3H]norepinephrine- or [^3H]dopamine-treated crude synaptosomes were loaded onto closed filter chambers containing Whatman® Grade GF/C Glass Microfiber filters (Sigma-Aldrich, Merck KGaA, Darmstadt, Germany) and placed in a superfusion system. Preoxygenated Krebs buffer was perfused through the chambers at a rate of 1 ml/min at 37 °C using an 8-channel peristaltic pump. To ensure an even flow over the synaptosomal bed, trapped air bubbles were removed from the filters prior to collection of the fractions. After a superfusion period of 40 min, three basal fractions (1.5 ml/fraction) were collected first, followed by three fractions (1.5 ml/fraction) containing the test compound. Two additional fractions were collected in the presence of 30 mM KCl to depolarize the synaptosomes. A 0.4-ml aliquot of each fraction was then transferred to a counting plate, and a scintillation cocktail was added to measure the radioactivity using a Wallac® TriLux 1450 MicroBeta counter (PerkinElmer Life Sciences, Zaventem, Belgium). Once all fractions were collected, the filters holding the crude synaptosome samples were removed and dried overnight at room temperature. On the following day, the scintillation cocktail was added and the filters were counted to determine residual radioactivity.
as §1

[3] = system: zebrafish (Danio rerio; strain AB); test: Zebrafish novel tank test (NTT)
Description: Adult male and female wild-type zebrafish were treated with the compounds for 20 min in a final volume of 50 ml in a 250-ml treatment beaker one fish at a time. The fish were briefly rinsed in fresh system water, and then immediately transferred to a trapezoidal tank (14.6 cm height x 5.5 cm width x 27.9 cm top length and x 23.6 cm bottom length) filled with 1.5 L system water. The behavior of the fish was monitored for the next 5 min by using the Noldus EthoVision XT system (Wageningen, Netherlands), with the camera placed approximately 1 m from the test tank. The part of the tank filled with water (11.5 cm height) was virtually divided into top, center, and bottom of equal heights (approximately 3.8 cm per segment) for the analysis. The average time spent at the top and bottom portions of the tank was analyzed to determine the anxiety-like behavior of fish. The average total distance travelled and freezing time were calculated to determine the effects of the compounds on the general behavior of fish. Freezing was defined by a complete cessation of movement except for gills and eyes ([Kalueff et al., 2013]). A minimum of 12 fish (6 females and 6 males) per condition were used for the study. The experimenter was blind to the test conditions.
If not, the dose was reduced until no obvious signs of tolerability problems were observed. […] The concentrations were calculated based on the free base molecular weight. Buspirone—a clinical anxiolytic drug used acutely and chronically to investigate the change in the anxiety-like behavior ([Maximino, et al., 2011]; [Maximino, et al., 2013])—was included as a positive control.

Structure (SMILES): O=C(N[C@H]1CN2CCC1CC2)c1ccc(Cl)cc1 [PNU282987]
BT (°C) naïve (C57Bl/6 mice; 1 mg/kg group): 36.48 ± 0.38 °C | Manipulations naïve (C57Bl/6 mice; 1 mg/kg group): 2.00 ± 1.63 | Passive naïve (C57Bl/6 mice; 1 mg/kg group): 0.25 ± 0.50 | BT (°C) 15min (C57Bl/6 mice; 1 mg/kg i.p.): 38.13 ± 0.15 °C | BT (°C) 4hr (C57Bl/6 mice; 1 mg/kg i.p.): 36.60 ± 0.18 °C | BT (°C) 24hr (C57Bl/6 mice; 1 mg/kg i.p.): 36.85 ± 0.66 °C | Manipulations 15min (C57Bl/6 mice; 1 mg/kg i.p.): 1.25 ± 1.26 | Manipulations 2hr (C57Bl/6 mice; 1 mg/kg i.p.): 0.75 ± 0.50 | Manipulations 4hr (C57Bl/6 mice; 1 mg/kg i.p.): 0.75 ± 0.96 | Passive 15min (C57Bl/6 mice; 1 mg/kg i.p.): 0.50 ± 0.58 | Passive 2hr (C57Bl/6 mice; 1 mg/kg i.p.): 0.00 ± 0.00 | Passive 4hr (C57Bl/6 mice; 1 mg/kg i.p.): 0.00 ± 0.00 | BW Day 1 (C57Bl/6 mice; 1 mg/kg i.p.): 24.03 ± 2.46 | BW Day 2 (C57Bl/6 mice; 1 mg/kg i.p.): 23.78 ± 2.61 | BT (°C) naïve (C57Bl/6 mice; 3 mg/kg group): 36.50 ± 0.24 °C | Manipulations naïve (C57Bl/6 mice; 3 mg/kg group): 0.75 ± 0.96 | Passive naïve (C57Bl/6 mice; 3 mg/kg group): 0.25 ± 0.50 | BT (°C) 15min (C57Bl/6 mice; 3 mg/kg i.p.): 37.85 ± 0.54 °C | BT (°C) 4hr (C57Bl/6 mice; 3 mg/kg i.p.): 36.63 ± 0.21 °C | BT (°C) 24hr (C57Bl/6 mice; 3 mg/kg i.p.): 36.40 ± 0.12 °C | Manipulations 15min (C57Bl/6 mice; 3 mg/kg i.p.): 0.75 ± 0.96 | Manipulations 2hr (C57Bl/6 mice; 3 mg/kg i.p.): 0.50 ± 0.58 | Manipulations 4hr (C57Bl/6 mice; 3 mg/kg i.p.): 0.25 ± 0.50 | Passive 15min (C57Bl/6 mice; 3 mg/kg i.p.): 0.50 ± 0.58 | Passive 2hr (C57Bl/6 mice; 3 mg/kg i.p.): 0.00 ± 0.00 | Passive 4hr (C57Bl/6 mice; 3 mg/kg i.p.): 0.00 ± 0.00 | BW Day 1 (C57Bl/6 mice; 3 mg/kg i.p.): 23.38 ± 0.54 | BW Day 2 (C57Bl/6 mice; 3 mg/kg i.p.): 23.47 ± 0.57 | BT (°C) naïve (C57Bl/6 mice; 10 mg/kg group): 36.73 ± 1.13 °C | Manipulations naïve (C57Bl/6 mice; 10 mg/kg group): 1.25 ± 0.96 | Passive naïve (C57Bl/6 mice; 10 mg/kg group): 0.25 ± 0.50 | BT (°C) 15min (C57Bl/6 mice; 10 mg/kg i.p.): 37.73 ± 0.46 °C | BT (°C) 4hr (C57Bl/6 mice; 10 mg/kg i.p.): 36.83 ± 0.59 °C | BT (°C) 24hr (C57Bl/6 mice; 10 mg/kg i.p.): 36.10 ± 0.52 °C | Manipulations 15min (C57Bl/6 mice; 10 mg/kg i.p.): 0.50 ± 0.58 | Manipulations 2hr (C57Bl/6 mice; 10 mg/kg i.p.): 0.25 ± 0.50 | Manipulations 4hr (C57Bl/6 mice; 10 mg/kg i.p.): 0.50 ± 0.58 | Passive 15min (C57Bl/6 mice; 10 mg/kg i.p.): 0.00 ± 0.00 | Passive 2hr (C57Bl/6 mice; 10 mg/kg i.p.): 0.00 ± 0.00 | Passive 4hr (C57Bl/6 mice; 10 mg/kg i.p.): 0.00 ± 0.00 | BW Day 1 (C57Bl/6 mice; 10 mg/kg i.p.): 23.62 ± 1.10 | BW Day 2 (C57Bl/6 mice; 10 mg/kg i.p.): 22.94 ± 1.25 | tolerability (C57Bl/6 mice): well tolerated | dopamine release ([1]; at higher concentrations): 20–30% | change in norepinephrine release [2]: negligible change

Structure (SMILES): O=C(c1ccc(Cl)o1)N1CC2CNCC2C1 (stereo not drawn) [AZD1446, 3-(5-chloro-2-furoyl)-3,7-diazabicyclo[3.3.0]octane]
tolerability (C57Bl/6 mice): well tolerated | EC50 [1]: 8.4 µM | change in norepinephrine release [2]: negligible change

freezing time ([3]; 100 mg/L): increased | total distance traveled ([3]; 100 mg/L): decreased
Structure (SMILES): O=C1CC2(CCCC2)CC(=O)N1CCCCN1CCN(c2ncccn2)CC1 [buspirone, buspirone hydrochloride]
time spent at the top ([3]; all three doses tested (10, 30, and 100 mg/L)): increased the time spent at the top | time spent at the bottom ([3]; middle two doses (10 and 30 mg/L)): reduced the time spent at the bottom

Structure (SMILES): CC(=O)OCC[N+](C)(C)C [acetylcholine]
EC50 [1]: 0.27 µM | EC50 ([2]; hippocampal synaptosomes): 13.5 µM
